Measurements published in US9221796B2, “Selective NR2B antagonists” (BRISTOL-MYERS SQUIBB COMPANY, priority 2014, dated 2015).

These compounds were tested against NR2B-subtype NMDA receptors (Rattus norvegicus (Rat), UniProt P35439+Q00960) (assay: Radioligand binding assay (3H Ro 25-6981 competition, forebrain membranes)). Conditions: 3H Ro 25-6981 (4 nM), listed as 44, E-2, read-out: NR2B Binding Ki.
Method: Radioligand Binding Assay. […] Buchy D; Klingelschmidt A; Messer J; Bleuel Z; Kemp J A; Richards J G. […] Thawed brains were homogenized using a Dounce homogenizer and centrifuged at 48000×g for 20 min. The pellet was resuspended in cold buffer and homogenized again using a Dounce homogenizer. […] After incubation for 1 hr at room temperature, the membrane bound radioligand was harvested on to GF/B filter plates (treated with 0.5% PEI for 1 hr at room temperature). The filter plates were dried at 50° C. for 20 mins, incubated with microscint 20 for 10 minutes and finally, the counts were read on TopCount (Perkin Elmer). […] CPM values were converted to % inhibition and the concentration response curves were plotted using custom made software. Each experiment was repeated at least twice to obtain the final binding Ki values for experimental compounds.

Chain of NR2B-subtype NMDA receptors (Q00960 27-1482, other chains not shown): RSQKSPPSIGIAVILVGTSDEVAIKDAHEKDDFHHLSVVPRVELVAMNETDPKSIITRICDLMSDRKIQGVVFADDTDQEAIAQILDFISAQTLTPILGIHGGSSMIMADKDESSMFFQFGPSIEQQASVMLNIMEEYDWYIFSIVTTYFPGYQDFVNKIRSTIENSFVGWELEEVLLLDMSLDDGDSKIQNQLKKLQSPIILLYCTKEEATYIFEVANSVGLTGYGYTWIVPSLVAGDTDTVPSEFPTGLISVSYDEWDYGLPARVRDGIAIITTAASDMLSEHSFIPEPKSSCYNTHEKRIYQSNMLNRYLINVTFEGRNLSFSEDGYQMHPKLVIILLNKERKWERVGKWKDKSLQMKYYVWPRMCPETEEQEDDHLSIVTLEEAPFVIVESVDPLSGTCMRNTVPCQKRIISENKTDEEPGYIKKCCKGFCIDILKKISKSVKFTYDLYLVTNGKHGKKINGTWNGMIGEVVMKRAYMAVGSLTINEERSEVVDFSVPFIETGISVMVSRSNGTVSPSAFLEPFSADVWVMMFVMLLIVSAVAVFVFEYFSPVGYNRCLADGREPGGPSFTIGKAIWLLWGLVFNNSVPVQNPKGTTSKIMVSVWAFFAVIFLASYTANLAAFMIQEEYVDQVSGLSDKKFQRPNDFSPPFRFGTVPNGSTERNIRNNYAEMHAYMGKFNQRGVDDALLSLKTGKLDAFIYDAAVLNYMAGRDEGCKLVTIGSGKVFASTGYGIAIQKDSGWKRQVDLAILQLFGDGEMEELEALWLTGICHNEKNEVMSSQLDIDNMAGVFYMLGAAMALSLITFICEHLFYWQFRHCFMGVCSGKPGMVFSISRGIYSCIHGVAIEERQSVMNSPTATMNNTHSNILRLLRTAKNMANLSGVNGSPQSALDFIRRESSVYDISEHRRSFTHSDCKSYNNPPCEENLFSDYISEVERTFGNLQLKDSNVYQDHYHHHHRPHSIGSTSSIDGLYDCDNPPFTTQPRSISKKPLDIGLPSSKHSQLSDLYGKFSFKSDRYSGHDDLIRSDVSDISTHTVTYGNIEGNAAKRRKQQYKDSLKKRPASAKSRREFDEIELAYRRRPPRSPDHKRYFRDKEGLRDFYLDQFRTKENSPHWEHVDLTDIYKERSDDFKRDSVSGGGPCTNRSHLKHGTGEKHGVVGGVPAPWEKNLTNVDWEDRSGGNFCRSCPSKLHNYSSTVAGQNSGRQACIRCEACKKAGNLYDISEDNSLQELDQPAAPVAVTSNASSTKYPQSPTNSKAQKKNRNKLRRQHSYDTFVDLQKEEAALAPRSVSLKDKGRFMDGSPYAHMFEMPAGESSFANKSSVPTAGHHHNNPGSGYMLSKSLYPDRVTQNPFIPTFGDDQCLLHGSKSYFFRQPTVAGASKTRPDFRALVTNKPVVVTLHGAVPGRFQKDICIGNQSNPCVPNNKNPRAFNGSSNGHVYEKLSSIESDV

| Ki | SMILES |
| --- | --- |
| 5.7 nM | O=C1C(N2CCC(c3ccc(O)cc3)C(O)C2)CCN1Cc1ccc(F)cc1 (single isomer, unassigned) [Example 44, E-2, 1-(4-Fluorobenzyl)-3-(cis-3-hydroxy-4-(4-hydroxyphenyl)piperidin-1-yl)pyrrolidin-2-one] |

Same assay, conditions: 3H Ro 25-6981 (4 nM), read-out: NR2B Binding Ki

| Ki | SMILES |
| --- | --- |
| 180 nM | O=C1[C@@H](N2CC[C@@H](c3ccc(O)cc3)[C@H](F)C2)CCN1Cc1ccc(C(F)F)cc1 [Example 114, P-2, (S)-1-(4-(difluoromethyl)benzyl)-3-((3S,4S)-3-fluoro-4-(4-hydroxyphenyl)piperidin-1-yl)pyrrolidin-2-one] |
| 77 nM | O=C1C(N2CCC(c3ccc(O)cc3)C(F)(F)C2)CCN1c1ccc(OC(F)F)c(Cl)c1 (stereo not drawn) [Example 90, 1-(3-Chloro-4-(difluoromethoxy)phenyl)-3-(3,3-difluoro-4-(4-hydroxyphenyl)piperidin-1-yl)pyrrolidin-2-one] |
| 720 nM | O=C1C(N2CCCC(c3ccc(O)cc3)C2)CCCN1Cc1ccc(Cl)cc1 (stereo not drawn) [Example 42, 1′-(4-Chlorobenzyl)-3-(4-hydroxyphenyl)-[1,3′-bipiperidin]-2′-one] |
| 36 nM | O=C1C(N2CCC(c3ccc(O)cc3)C(F)(F)C2)CCN1Cc1ccc(C(F)(F)F)cc1 (stereo not drawn) [Example 110, 3-(3,3-Difluoro-4-(4-hydroxyphenyl)piperidin-1-yl)-1-(4-(trifluoromethyl)benzyl)-pyrrolidin-2-one] |
| 260 nM | Cc1ccc(CN2CC[C@H](N3CC[C@@H](c4ccc(O)c(F)c4)[C@H](F)C3)C2=O)cc1F [Example 45, P-1, (S)-3-((3S,4S)-3-fluoro-4-(3-fluoro-4-hydroxyphenyl)piperidin-1-yl)-1-(3-fluoro-4-methylbenzyl)pyrrolidin-2-one] |
| 12 nM | O=C1C(N2CCC(c3ccc(O)cc3)CC2)CCN1Cc1ccc(Cl)c(F)c1 (stereo not drawn) [Example 15, 1-(4-Chloro-3-fluorobenzyl)-3-(4-(4-hydroxyphenyl)piperidin-1-yl)pyrrolidin-2-one] |
| 2.9 nM | O=C1[C@H](N2CC[C@@H](c3ccc(O)c(F)c3)[C@H](F)C2)CCN1Cc1ccc(C(F)F)cc1 [Example 117, P-2, (R)-1-(4-(difluoromethyl)benzyl)-3-((3S,4S)-3-fluoro-4-(3-fluoro-4-hydroxyphenyl)piperidin-1-yl)pyrrolidin-2-one] |
| 850 nM | O=C1[C@@H](N2CCC(c3ccc(O)cc3)CC2)CCN1Cc1ccc(F)c(F)c1 [Example 6a, (S)-1-(3,4-Difluorobenzyl)-3-(4-(4-hydroxyphenyl)piperidin-1-yl)pyrrolidin-2-one] |
| 4.4 nM | O=C1C(N2CCC(c3ccc(O)cc3)CC2)CCN1Cc1ccc(F)c(F)c1 (racemic) [Example 5, 1-(3,4-Difluorobenzyl)-3-(4-(4-hydroxyphenyl)piperidin-1-yl)pyrrolidin-2-one] |
| 710 nM | C[C@@H](c1ccccc1)N1CCC(N2CC[C@@H](c3ccc(O)cc3)[C@H](F)C2)C1=O (stereo partly drawn) [Example 68, 3-((3S,4S)-3-Fluoro-4-(4-hydroxyphenyl)piperidin-1-yl)-1-(1-phenylethyl)pyrrolidin-2-one] |
| 590 nM | O=C1C(N2CCC(c3ccc(O)cc3)C(F)(F)C2)CCN1Cc1ccc(F)c(Cl)c1 (stereo not drawn) [Example 111, 1-(3-Chloro-4-fluorobenzyl)-3-(3,3-difluoro-4-(4-hydroxyphenyl)piperidin-1-yl)pyrrolidin-2-one] |
| 7.7 nM | O=C1[C@H](N2CCC(c3ccc(O)cc3)C(F)(F)C2)CCN1Cc1ccc(Cl)c(F)c1 (single isomer, unassigned) [Example 107, P-2] |
| 21 nM | O=C1C(N2CCCC(c3ccc(O)cc3)CC2)CCN1Cc1ccccc1 (stereo not drawn) [Example 37, 1-Benzyl-3-(4-(4-hydroxyphenyl)azepan-1-yl)pyrrolidin-2-one] |
| 1320 nM | Cc1ccc(CN2CCC(N3CCCC(c4ccc(O)cc4)C3)C2=O)cc1 (stereo not drawn) [Example 3, 1-(4-Methylbenzyl)-3-(3-(4-hydroxyphenyl)piperidin-1-yl)pyrrolidin-2-one] |
| ≥ 5000 nM | C[C@@H](c1ccc(F)cc1)N1CC[C@H](N2CC[C@H](c3ccc(O)cc3)[C@@H](F)C2)C1=O [Example 50, P-1, (S)-3-((3R,4R)-3-Fluoro-4-(4-hydroxyphenyl)piperidin-1-yl)-1-((S)-1-(4-fluorophenyl)-ethyl)pyrrolidin-2-one] |
| 18 nM | O=C1[C@H](N2CCC(c3ccc(O)cc3)C(F)(F)C2)CCN1Cc1ccc(Cl)c(F)c1 (stereo partly drawn) [Example 96, P-2, (3R)-1-(4-Chloro-3-fluorobenzyl)-3-(3,3-difluoro-4-(4-hydroxyphenyl)piperidin-1-yl)pyrrolidin-2-one] |
| 6 nM | O=C1[C@H](N2CC[C@@H](c3ccc(O)cc3)[C@H](F)C2)CCN1Cc1ccc(C(F)(F)F)cc1 [Example 72, (R)-3-((3S,4S)-3-Fluoro-4-(4-hydroxyphenyl)piperidin-1-yl)-1-(4-(trifluoromethyl)benzyl)-pyrrolidin-2-one] |
| 540 nM | O=C1[C@@H](N2CC[C@H](c3ccc(O)cc3)[C@@H](F)C2)CCN1Cc1ccc(C(F)(F)F)cc1 [Example 87, (S)-3-((3R,4R)-3-Fluoro-4-(4-hydroxyphenyl)piperidin-1-yl)-1-(4-(trifluoromethyl)benzyl)-pyrrolidin-2-one] |

| Ki | SMILES |
| --- | --- |
| 44 nM | C[C@@H](c1ccccc1)N1CC[C@@H](N2CCC(c3ccc(O)cc3)CC2)C1=O [Example 33b, (R)-3-(4-(4-Hydroxyphenyl)piperidin-1-yl)-1-((S)-1-phenylethyl)pyrrolidin-2-one] |
| ≥ 5000 nM | C[C@@H](c1ccc(F)cc1)N1CC[C@H](N2CC[C@@H](c3ccc(O)cc3)[C@H](F)C2)C1=O [Example 50, P-3, (S)-3-((3S,4S)-3-Fluoro-4-(4-hydroxyphenyl)piperidin-1-yl)-1-((S)-1-(4-fluorophenyl)ethyl)pyrrolidin-2-one] |
| 200 nM | O=C1C(N2CCC(c3ccc(O)cc3)CC2)CCCN1Cc1ccccc1 (single isomer, unassigned) [Example 41b, 1′-Benzyl-4-(4-hydroxyphenyl)-[1,3′-bipiperidin]-2′-one] |
| 180 nM | O=C1C(N2CCC(c3ccc(O)cc3)C(O)C2)CCN1Cc1ccc(F)cc1 (single isomer, unassigned) [Example 9a, 1-(4-Fluorobenzyl)-3-(3-hydroxy-4-(4-hydroxyphenyl)piperidin-1-yl)pyrrolidin-2-one] |
| 76 nM | O=C1C(N2CCC(c3ccc(O)cc3)C(F)(F)C2)CCN1Cc1ccccc1 (single isomer, unassigned) [Example 91, P-1, 1-Benzyl-3-(3,3-difluoro-4-(4-hydroxyphenyl)piperidin-1-yl)pyrrolidin-2-one] |
| 740 nM | O=C1[C@@H](N2CCC(c3ccc(O)cc3)C(F)(F)C2)CCN1Cc1ccccc1 (stereo partly drawn) [Example 102, P-1, (3S)-1-Benzyl-3-(3,3-difluoro-4-(4-hydroxyphenyl)piperidin-1-yl)pyrrolidin-2-one] |
| 510 nM | O=C1C(N2CC(c3ccc(O)cc3)C2)CCN1Cc1ccc(F)cc1 (stereo not drawn) [Example 11, 1-(4-Fluorobenzyl)-3-(3-(4-hydroxyphenyl)azetidin-1-yl)pyrrolidin-2-one] |
| 560 nM | O=C1C(N2CC(c3ccc(O)cc3)C2)CCN1Cc1ccccc1 (stereo not drawn) [Example 16, 1-Benzyl-3-(3-(4-hydroxyphenyl)azetidin-1-yl)pyrrolidin-2-one] |
| 54 nM | O=C1[C@@H](N2CCC(c3ccc(O)cc3)C(F)(F)C2)CCN1Cc1ccc(Cl)cc1 (stereo partly drawn) [Example 95, P-1, (3S)-1-(4-Chlorobenzyl)-3-(3,3-difluoro-4-(4-hydroxyphenyl)piperidin-1-yl)pyrrolidin-2-one] |
| 8.7 nM | O=C1[C@H](N2CC[C@@H](c3ccc(O)cc3)[C@H](F)C2)CCN1Cc1ccccc1 [Example 58, (R)-1-Benzyl-3-((3S,4S)-3-fluoro-4-(4-hydroxyphenyl)piperidin-1-yl)pyrrolidin-2-one] |
| 660 nM | C[C@@H](c1ccc(F)cc1)N1CCC(N2CCC(c3ccc(O)cc3)C(F)(F)C2)C1=O (single isomer, unassigned) [Example 56, P-4] |
| 13 nM | O=C1[C@@H](N2CCC(c3ccc(O)cc3)C(F)(F)C2)CCN1c1ccc(OC(F)F)c(Cl)c1 (stereo partly drawn) [Example 101, P-1, (3S)-1-(3-Chloro-4-(difluoromethoxy)phenyl)-3-(3,3-difluoro-4-(4-hydroxyphenyl)-piperidin-1-yl)pyrrolidin-2-one] |
| 470 nM | Cc1ccc(CN2CC[C@H](N3CC[C@@H](c4ccc(O)cc4)[C@H](F)C3)C2=O)cc1F [Example 47, P-1, (S)-3-((3S,4S)-3-Fluoro-4-(4-hydroxyphenyl)piperidin-1-yl)-1-(3-fluoro-4-methylbenzyl)pyrrolidin-2-one] |
| ≥ 5000 nM | C[C@@H](c1ccc(F)cc1)N1CCC(N2CCC(c3ccc(O)cc3)C(F)(F)C2)C1=O (single isomer, unassigned) [Example 56, P-3] |
| 67 nM | Cc1cccc(CN2CCC(N3CCC(c4ccc(O)cc4)C(F)(F)C3)C2=O)c1 (stereo not drawn) [Example 93, 3-(3,3-Difluoro-4-(4-hydroxyphenyl)piperidin-1-yl)-1-(3-methylbenzyl)pyrrolidin-2-one] |
| 14 nM | O=C1C(N2CCC(c3ccc(O)cc3)C(F)(F)C2)CCN1Cc1ccccc1 (single isomer, unassigned) [Example 91, P-2, 1-Benzyl-3-(3,3-difluoro-4-(4-hydroxyphenyl)piperidin-1-yl)pyrrolidin-2-one] |
| 40 nM | O=C1C(N2CC[C@H](c3ccc(O)cc3)[C@@H](F)C2)CCN1c1ccc(OC(F)F)c(Cl)c1 (stereo partly drawn) [Example 79, 1-(3-Chloro-4-(difluoromethoxy)phenyl)-3-((3R,4R)-3-fluoro-4-(4-hydroxyphenyl)-piperidin-1-yl)pyrrolidin-2-one] |
